Source: US20220356163A1, “SMALL MOLECULE INHIBITORS OF Id PROTEINS” (MEMORIAL SLOAN KETTERING CANCER CENTER, priority 2019, published 2022)
Several values for one entry are separate records, joined by “and”; a condition that tells them apart may be missing. Equal entries are not always repeated.

How the values were obtained:
ID1 = target: T1, ID1 (Homo sapiens, UniProt P41134); test: Western blot for ID1 in HUVECs; format: cell-based; parameters: host or cells: HUVEC; conditions: 0-40 μM, 24 hours
T1 sequence (P41134 1-155): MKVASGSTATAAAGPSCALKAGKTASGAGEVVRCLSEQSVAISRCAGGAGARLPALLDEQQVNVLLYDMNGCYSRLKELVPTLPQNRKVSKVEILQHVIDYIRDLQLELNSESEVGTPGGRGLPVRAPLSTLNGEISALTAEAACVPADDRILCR
Protocol: Immunoblotting. For immunoblotting, cells were collected by trypsinization, washed with PBS and lysed in homogenization buffer (0.3 M sucrose, 10 mM Tris (pH 8.0), 400 mM sodium chloride, 3 mM magnesium chloride, 0.5% NP40/IGEPAL, 100 μg/mL Aprotinin+Protease inhibitor cocktail (Roche #11 836 153 001). Proteins were separated by SDS-PAGE, transferred to a membrane (LI-COR), probed with primary antibodies overnight at 4° C., and probed with secondary antibodies (LI-COR) for 1-2 hours at room temperature. Proteins were visualized using the LI-COR Odyssey Infrared Imaging detection system. The following primary antibodies were used Id1, Id2, Id3, Id4 (195-14, 9-2-8, 17-3, 82-12, respectively, all from Biocheck), Cyclin D1 (2978, Cell Signaling), Actin (A2066, Sigma), Tubulin (T4026, Sigma). Western blot quantification was carried out using channel 700 and channel 800 intensity data from Odyssey application software version 3.0.30 (LI-COR), subtracting blank values and normalizing to Tubulin.
The activity of AGX51 was tested on primary human umbilical vein endothelial cells (HUVECs) and the HCT116 colorectal cancer cell line, two cell types with different ID1-4 expression profiles. […] The effects of AGX51 on ID3 loss in HUVECs was diminished in the 20-40 μM range compared with ID1, consistent with the weaker perturbation observed in the CD spectra.

Aqueous solubility = format: physicochemical
[1] = Pharmacokinetics in serum after i.p. injection; format: in vivo, mouse
Protocol: Pharmacokinetic analyses. To determine the pharmacokinetic parameters of AGX51, eight-week old male Balb/c mice (Taconic farms) were dosed once by i.p. injection with 30 mg/kg, 50 mg/kg or 100 mg/kg AGX51 prepared in 70% DMSO (n=3 mice per group). Another set of three mice was dosed with 100 mg/kg AGX51 prepared in 100% DMSO. Blood was collected at 30 minutes, 1 hour, 3 hours, 6 hours and 24 hours post AGX51 administration and plasma analyzed via LC-MS as per the protocol previously validated in the MSKCC Antitumor Assessment Core Facility. Following blood collection, the mice were sacrificed via CO2 asphyxiation and the eyes from the 30 mg/kg treatment group were collected and flash frozen for analysis. Data obtained from LC-MS was analyzed via WinNonLin software (version 8.1) for pharmacokinetic parameters.
The determination of the feasibility of administering AGX51 systemically for the treatment of ocular retinopathies was next explored. To determine the half-life of AGX51 in serum, mice were treated by intraperitoneal (i.p.) injection with a single dose of 30 mg/kg or 50 mg/kg AGX51 in 70% DMSO and blood was collected over a 24-hour period. […] Thus, 70% formulations were used in all future studies.

HUVEC = HUVEC scratch (migration) assay; format: cell-based, human; conditions: 0-40 μM, 24 hours
Protocol: HUVEC scratch assay. HUVECs were seeded on 24-well plate coated with 0.1% fibronectin. After 24 hours when cells were grown to confluency, cells were serum starved for 4 hours in Endothelial Basal Medium (EBM, Lonza) and scraped with a sterile P200 pipette tip to generate a cell free zone. Cells were washed with PBS and stimulated with EGM-2 medium with the indicated AGX concentration for 24 hours. The scratched area at 0 and at 24 hours was visualized using an inverted microscope and photographed with a digital camera at 20× magnification.

PDX-BR11 = test: MTT assay, PDX-BR11; format: cell-based; conditions: 24 h, PDX-BR11, PDX cell line, read-out: IC50 value after 24 hours of treatment
Source text: The 4T1 murine mammary tumor cell line and nine breast cancer cell lines representing the major breast cancer subtypes (ER+, HER2+, and TNBC) including MDA-MB-157, MDA-MB-436, MDA-MB-231, MDA-MB-453, MDA-MB-361, BT-474, SK-BR-3, MCF-7 and T47-D will be grown in RPMI or DMEM (Dulbecco's Modified Eagle Medium) media supplemented with 10% FBS (fetal bovine serum), 1% penicillin-streptomycin and 1% L-Glutamine. Patient derived xenograft cell lines BR7, BR11, and IBT will be established directly from breast cancer bone metastases specimens surgically resected from patients with informed consent. BR7 and BR11 specimens will be obtained from ER positive (HER2 negative and PR negative) metastatic breast cancer patients, while the IBT specimen will be obtained from a metastatic, triple negative breast cancer patient. Fresh tumor tissues will be quickly washed with ice cold PBS and minced into about 1-3 mm pieces in MEM medium (without FBS) using sterile razor blades. […] The cells will be treated with either 100 μM DMSO, AGX51, or a compound of the present technology such as AGX-A. The cell morphology and growth will be monitored daily for 1 week by microscopy for changes in morphology or cell death. […] Absorbance will then measured at 570 nm using a plate reader (Synergy 2, BioTek). […]

SMILES: CCC(=O)N(CCC(c1ccc2c(c1)OCO2)c1ccccc1OC)Cc1ccccc1 (racemic) [AGX51, N-(3-(benzo[d][1,3]dioxol-5-yl)-3-(2-methoxyphenyl)propyl)-N-benzylpropionamide]
- concentration at which significant decrease in ID1 protein levels was observed (ID1): 10 µM
- water solubility (Aqueous solubility): water insoluble
- mean maximum serum concentration ([1]; 30 mg/kg i.p., 70% DMSO): 1.1 μg/mL and 2.7 μM
- mean maximum serum concentration ([1]; 50 mg/kg i.p., 70% DMSO): 1.6 μg/mL and 4 μM
- mean maximum serum concentration vs lower doses ([1]; 100 mg/kg i.p., 70% DMSO): not increased further
- mean serum concentration ([1]; 100 mg/kg i.p., 100% DMSO): ~12 µM
- HUVEC migration (HUVEC): significantly impaired HUVEC migration
- IC50 (PDX-BR11): 18.6 µM
